Measurements taken from ChEMBL document CHEMBL6153137, “Design, Synthesis, and Biological Evaluation of Novel Orally Available Covalent CDK12/13 Dual Inhibitors for the Treatment of Tumors” (J Med Chem, 2025).
≈ marks a conversion by molar mass, not a printed value. Calls of active or inactive are those of the source. No cut-off for these calls is given here.

Columns and labels:
[1] = AUC (0 to infinity) in Sprague-Dawley rat at 15 mg/kg, po by LC-MS/MS analysis; format: ADME, organism-based; conditions: in vivo
[2] = Toxicity against male Sprague-Dawley rat assessed as effect on monocytes level at 10 to 40 mg/kg, po administered once daily via gavage for 28 days and measured on day 29; format: organism-based; conditions: in vivo, 696 h, dose 10-40 mg/kg, time 29 day
[3] = Toxicity against female Sprague-Dawley rat assessed as decrease in lymphocytes content at 7.5 to 30 mg/kg, po administered once daily via gavage for 28 days and measured on day 29; format: organism-based; conditions: in vivo, 696 h, dose 7.5-30 mg/kg, time 29 day
[4] = Cmax in Balb/c mouse xenografted with human MV4-11 cells at 15 mg/kg, po administered once daily via gavage; format: ADME, organism-based; conditions: in vivo
[5] = Cmax in male Sprague-Dawley rat at 20 mg/kg, po administered once daily via gavage for 28 days; format: ADME, organism-based; conditions: in vivo, time 28 day
[6] = Cmax in Sprague-Dawley rat at 1 mg/kg, iv measured for 24 hrs by LC-MS/MS analysis; format: ADME, organism-based; conditions: in vivo
[7] = Toxicity against Sprague-Dawley rat assessed as abnormalities at 1 mg/kg, iv measured for 24 hrs; format: organism-based; conditions: in vivo
[8] = Toxicity against female Sprague-Dawley rat assessed as effect on AST level in blood at 7.5 to 30 mg/kg, po administered once daily via gavage for 28 days and measured on day 29; format: organism-based; conditions: in vivo, 696 h, dose 7.5-30 mg/kg, time 29 day
CDK9/cyclin T1 = CDK9/cyclin T1 (Homo sapiens, UniProt P50750); test: Inhibition of human recombinant N-terminal GST-tagged CDK9/N-terminal GST-tagged and C-terminal 8X His-tagged Cyclin T1 expressed in HEP Sf9 cells using ATP as substrate measured after 60 mins by ADP-Glo reagent based luminescence assay
CDK9/cyclin T1, sequence (O60563 whole entry): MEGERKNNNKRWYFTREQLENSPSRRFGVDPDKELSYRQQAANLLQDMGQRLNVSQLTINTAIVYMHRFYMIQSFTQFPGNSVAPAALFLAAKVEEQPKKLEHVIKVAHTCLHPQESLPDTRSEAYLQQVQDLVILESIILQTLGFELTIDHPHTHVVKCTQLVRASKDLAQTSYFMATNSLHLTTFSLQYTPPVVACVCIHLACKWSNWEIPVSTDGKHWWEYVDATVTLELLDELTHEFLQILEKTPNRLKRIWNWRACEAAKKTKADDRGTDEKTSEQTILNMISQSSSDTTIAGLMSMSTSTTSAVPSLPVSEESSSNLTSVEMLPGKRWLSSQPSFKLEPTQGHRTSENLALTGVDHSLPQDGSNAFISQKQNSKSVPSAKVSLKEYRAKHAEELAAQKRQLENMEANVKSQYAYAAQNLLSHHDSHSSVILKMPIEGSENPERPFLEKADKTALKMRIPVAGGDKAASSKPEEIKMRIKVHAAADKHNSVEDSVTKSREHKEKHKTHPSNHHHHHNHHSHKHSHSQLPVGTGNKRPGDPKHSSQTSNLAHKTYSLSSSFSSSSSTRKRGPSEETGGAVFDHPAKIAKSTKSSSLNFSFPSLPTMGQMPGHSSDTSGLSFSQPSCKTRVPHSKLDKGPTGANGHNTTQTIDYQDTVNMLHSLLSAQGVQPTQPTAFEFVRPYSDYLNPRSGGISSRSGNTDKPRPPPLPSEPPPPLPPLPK
CDK9/cyclin T1, sequence (P50750 whole entry): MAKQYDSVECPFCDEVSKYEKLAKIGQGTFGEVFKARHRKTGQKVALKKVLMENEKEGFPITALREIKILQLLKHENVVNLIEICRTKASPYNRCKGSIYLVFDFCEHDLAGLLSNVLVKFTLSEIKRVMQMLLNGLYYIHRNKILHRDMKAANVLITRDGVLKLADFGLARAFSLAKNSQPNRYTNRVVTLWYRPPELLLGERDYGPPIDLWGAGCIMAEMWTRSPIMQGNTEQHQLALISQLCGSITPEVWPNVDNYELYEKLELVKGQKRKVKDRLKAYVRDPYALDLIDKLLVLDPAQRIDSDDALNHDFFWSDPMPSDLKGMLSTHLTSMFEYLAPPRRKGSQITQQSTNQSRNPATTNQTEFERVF

[9] = Kinetic solubility of the compound in phosphate buffer at pH 7.4 measured after 24 hrs by HPLC-UV analysis; format: physicochemical; conditions: read-out: Kinetic_solubility
[10] = Cmax in Balb/c mouse xenografted with human SUM149PT cells at 30 mg/kg, po administered once daily via gavage; format: ADME, organism-based; conditions: in vivo
HEP Sf9 = test: Inhibition of human recombinant N-terminal GST-tagged CDK4/C-terminal 6XHis-tagged Cyclin D3 S259A mutant expressed in HEP Sf9 cells using ATP as substrate at 2 uM measured after 60 mins by ADP-Glo reagent based luminescence assay
[11] = Half life in Sprague-Dawley rat at 15 mg/kg, po measured for 24 hrs by LC-MS/MS analysis; format: ADME, organism-based; conditions: in vivo
[12] = Cmax in Balb/c mouse xenografted with human MV4-11 cells at 30 mg/kg, po administered once daily via gavage; format: ADME, organism-based; conditions: in vivo
[13] = Toxicity against female Sprague-Dawley rat assessed as effect on hematocrit level at 7.5 to 30 mg/kg, po administered once daily via gavage for 28 days and measured on day 29; format: organism-based; conditions: in vivo, 696 h, dose 7.5-30 mg/kg, time 29 day
CDK7/Cyclin H/MNAT1 = CDK7/Cyclin H/MNAT1 (Homo sapiens, UniProt P50613); test: Inhibition of human recombinant N-terminal 6X His-tagged CDK7/CCNH/N-terminal 6X His-tagged MNAT1 expressed in HEP Sf9 cells using ATP as substrate measured after 60 mins by ADP-Glo reagent based luminescence assay
CDK7/Cyclin H/MNAT1, sequence (P51946 whole entry): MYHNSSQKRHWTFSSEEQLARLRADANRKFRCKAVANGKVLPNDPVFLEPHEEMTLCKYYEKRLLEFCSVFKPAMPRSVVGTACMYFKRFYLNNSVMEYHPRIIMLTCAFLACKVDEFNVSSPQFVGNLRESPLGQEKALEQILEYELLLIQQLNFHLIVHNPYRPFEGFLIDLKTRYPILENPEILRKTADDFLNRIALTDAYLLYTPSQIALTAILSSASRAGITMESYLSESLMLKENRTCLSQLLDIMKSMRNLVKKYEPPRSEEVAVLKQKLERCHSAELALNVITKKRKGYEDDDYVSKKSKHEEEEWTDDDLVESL
CDK7/Cyclin H/MNAT1, sequence (P50613 whole entry): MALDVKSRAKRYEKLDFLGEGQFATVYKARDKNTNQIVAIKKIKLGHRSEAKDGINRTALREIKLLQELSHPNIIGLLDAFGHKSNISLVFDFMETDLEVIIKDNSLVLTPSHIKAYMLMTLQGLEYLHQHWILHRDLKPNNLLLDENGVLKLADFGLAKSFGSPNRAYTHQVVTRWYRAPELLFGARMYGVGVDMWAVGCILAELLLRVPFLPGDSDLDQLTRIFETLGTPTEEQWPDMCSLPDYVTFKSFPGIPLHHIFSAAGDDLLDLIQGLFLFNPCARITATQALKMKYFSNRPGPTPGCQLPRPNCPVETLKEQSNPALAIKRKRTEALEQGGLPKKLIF
CDK7/Cyclin H/MNAT1, sequence (P51948 whole entry, further chain): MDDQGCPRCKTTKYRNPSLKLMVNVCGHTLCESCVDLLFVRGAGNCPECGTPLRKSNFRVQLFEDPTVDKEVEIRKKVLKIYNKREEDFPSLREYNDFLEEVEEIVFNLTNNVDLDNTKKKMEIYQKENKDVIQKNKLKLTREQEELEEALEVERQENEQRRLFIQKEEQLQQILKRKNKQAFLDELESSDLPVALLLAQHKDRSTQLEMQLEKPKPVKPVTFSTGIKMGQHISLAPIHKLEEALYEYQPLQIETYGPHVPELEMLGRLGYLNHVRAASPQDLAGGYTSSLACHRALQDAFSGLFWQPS

[14] = Ratio of drug level in tumor to plasma in Balb/c mouse xenografted with human SUM149PT cells at 60 mg/kg, po administered via gavage and measured after 2 hrs; format: ADME, organism-based
NCI-H508 = test: Antiproliferative activity against human NCI-H508 cells assessed as reduction in cell viability incubated for 7 days by CellTiter-Glo reagent based luminescence analysis; format: functional; conditions: NCI-H508, 168 h
[15] = Toxicity against female Sprague-Dawley rat assessed as effect on monocytes level at 7.5 to 30 mg/kg, po administered once daily via gavage for 28 days and measured on day 29; format: organism-based; conditions: in vivo, 696 h, dose 7.5-30 mg/kg, time 29 day
[16] = Toxicity against Sprague-Dawley rat assessed as abnormalities at 5 to 15 mg/kg, po measured for 24 hrs; format: organism-based; conditions: in vivo, dose 5-15 mg/kg
[17] = AUC(0 to t) in male Sprague-Dawley rat at 40 mg/kg, po administered via gavage and measured on day 1; format: ADME, organism-based; conditions: in vivo, 24 h, time 1 day
[18] = Toxicity against male Sprague-Dawley rat assessed as effect on hematocrit level at 10 to 40 mg/kg, po administered once daily via gavage for 28 days and measured on day 29; format: organism-based; conditions: in vivo, 696 h, dose 10-40 mg/kg, time 29 day
[19] = Half life in male Sprague-Dawley rat at 10 mg/kg, po administered once daily via gavage for 28 days; format: ADME, organism-based; conditions: in vivo, time 28 day
[20] = target: CDK3/Cyclin E (Homo sapiens) (UniProt P24864+Q00526); test: Inhibition of human recombinant N-terminal GST-tagged CDK3/N-terminal 6X His-tagged Cyclin E1 expressed in HEP Sf9 cells using ATP as substrate at 2 uM measured after 60 mins by ADP-Glo reagent based luminescence analysis
CDK3/Cyclin E (Homo sapiens), sequence (P24864 whole entry, looked up): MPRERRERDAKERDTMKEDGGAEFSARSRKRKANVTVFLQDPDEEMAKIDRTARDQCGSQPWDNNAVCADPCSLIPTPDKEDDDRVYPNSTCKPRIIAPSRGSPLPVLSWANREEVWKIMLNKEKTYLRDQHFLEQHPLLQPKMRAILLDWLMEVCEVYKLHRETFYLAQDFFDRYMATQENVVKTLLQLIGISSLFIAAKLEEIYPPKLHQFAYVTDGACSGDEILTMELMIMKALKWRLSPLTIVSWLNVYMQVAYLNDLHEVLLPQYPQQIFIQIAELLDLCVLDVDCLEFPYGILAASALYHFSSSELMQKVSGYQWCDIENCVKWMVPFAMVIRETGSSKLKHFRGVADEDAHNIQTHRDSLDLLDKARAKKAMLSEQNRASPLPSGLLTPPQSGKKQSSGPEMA
CDK3/Cyclin E (Homo sapiens), sequence (Q00526 whole entry, looked up): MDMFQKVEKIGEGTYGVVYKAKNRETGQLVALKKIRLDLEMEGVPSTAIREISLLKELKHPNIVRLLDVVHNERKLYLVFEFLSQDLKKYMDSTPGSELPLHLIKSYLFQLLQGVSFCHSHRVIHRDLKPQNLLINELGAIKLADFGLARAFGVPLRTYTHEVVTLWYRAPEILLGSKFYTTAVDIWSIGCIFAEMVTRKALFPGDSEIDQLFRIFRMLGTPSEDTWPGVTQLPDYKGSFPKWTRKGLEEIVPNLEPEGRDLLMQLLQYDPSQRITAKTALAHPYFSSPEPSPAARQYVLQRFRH

[21] = Volume of distribution at steady state in Sprague-Dawley rat at 1 mg/kg, iv measured for 24 hrs by LC-MS/MS analysis; format: ADME, organism-based; conditions: in vivo, read-out: Vdss
Mus musculus = test: In vivo inhibition of CDK12/13 in Balb/c mouse xenografted with human SUM149PT cells assessed as reduction in ATM gene expression at 15 to 30 mg/kg, po administered once daily via gavage and measured at 4 hrs post-last drug dosage by qPCR analysis; format: functional, organism-based; conditions: dose 15-30 mg/kg
[22] = Cmax in Sprague-Dawley rat at 150 mg/kg, po measured for 24 hrs by LC-MS/MS analysis; format: ADME, organism-based; conditions: in vivo
[23] = AUC in Balb/c mouse xenografted with human MV4-11 cells at 15 mg/kg, po administered once daily via gavage; format: ADME, organism-based; conditions: in vivo
[24] = Cmax in male Sprague-Dawley rat at 20 mg/kg, po administered via gavage and measured on day 1; format: ADME, organism-based; conditions: in vivo, time 1 day
[25] = Toxicity against male Sprague-Dawley rat assessed as effect on sodium level in blood at 10 to 40 mg/kg, po administered once daily via gavage for 28 days and measured on day 29; format: organism-based; conditions: in vivo, 696 h, dose 10-40 mg/kg, time 29 day
[26] = Toxicity against male Sprague-Dawley rat assessed as effect on glucose level in blood at 10 to 40 mg/kg, po administered once daily via gavage for 28 days and measured on day 29; format: organism-based; conditions: in vivo, 696 h, dose 10-40 mg/kg, time 29 day
[27] = Toxicity against female Sprague-Dawley rat assessed as effect on glucose level in blood at 7.5 to 30 mg/kg, po administered once daily via gavage for 28 days and measured on day 29; format: organism-based; conditions: in vivo, 696 h, dose 7.5-30 mg/kg, time 29 day
[28] = Ratio of drug level in tumor to plasma in Balb/c mouse xenografted with human SUM149PT cells at 30 mg/kg, po administered via gavage and measured after 2 hrs; format: ADME, organism-based
[29] = Volume of distribution at steady state in CD-1 mouse at 1 mg/kg, iv measured for 24 hrs by LC-MS/MS analysis; format: ADME, organism-based; conditions: in vivo, read-out: Vdss
[30] = Toxicity against female Sprague-Dawley rat assessed as effect on creatinine level in blood at 7.5 to 30 mg/kg, po administered once daily via gavage for 28 days and measured on day 29; format: organism-based; conditions: in vivo, 696 h, dose 7.5-30 mg/kg, time 29 day
[31] = Toxicity against Balb/c mouse xenografted with human MV4-11 cells assessed as effect on body weight at 15 to 30 mg/kg, po administered once daily via gavage and measured every 3 days for 3 weeks; format: organism-based; conditions: in vivo, 504 h, dose 15-30 mg/kg

AUC(0-inf) [1]: 2280 ng·h/mL | Cmax [4]: 647 ng/mL | Cmax [5]: 793 ng/mL | Cmax [6]: 830 ng/mL | IC50 (CDK9/cyclin T1): 641 nM | solubility kinetic at 24 h [9]: 59.4 µg/mL (≈ 143 µM) | Cmax [10]: 1980 ng/mL | half-life [11]: 1.81 h | Cmax [12]: 1350 ng/mL | IC50 (CDK7/Cyclin H/MNAT1): 204 nM | Kp at 2 h [14]: 0.42 | IC50 (NCI-H508): 87 nM | AUCt [17]: 7120 ng·h/mL | half-life [19]: 3.5 h | inhibition [20]: 46% | Vd [21]: 0.72 L/kg | Cmax [22]: 3760 ng/mL | AUC [23]: 2140 ng·h/mL | Cmax [24]: 1070 ng/mL | Kp at 2 h [28]: 0.38 | Vd [29]: 0.87 L/kg
SMILES: C=CC(=O)N1CCc2c(ncnc2N2CC[C@@H](Nc3ncc(Cl)c(OC)n3)C2)C1
Activity [2]: Non-toxic | Activity [3]: Toxic | Activity [7]: Non-toxic | Activity [8]: Non-toxic | inhibition (HEP Sf9): 68% | Activity [13]: Non-toxic | Activity [15]: Non-toxic | Activity [16]: Non-toxic | Activity [18]: Non-toxic | inhibition (Mus musculus): Active | Activity [25]: Non-toxic | Activity [26]: Non-toxic | Activity [27]: Non-toxic | Activity [30]: Non-toxic | Activity [31]: Non-toxic
